# Laboratory results published in patent US4374249A, “[4R]-3-(ω-Aroylpropionyl)-4-thiazolidinecarboxylic acids and esters” (American Cyanamid Company, priority 1980, dated 1983).
# Molecular target: T1, angiotensin converting enzyme (ACE) (Oryctolagus cuniculus, UniProt P12822)
# T1 construct: The ACE was extracted from rabbit lung acetane powder; tissue Pel-Freez, Biol. Inc; host or cells: rabbit lung acetone powder, 40,000 g supernatant used as crude extract
# T1 sequence (P12822 34-1310): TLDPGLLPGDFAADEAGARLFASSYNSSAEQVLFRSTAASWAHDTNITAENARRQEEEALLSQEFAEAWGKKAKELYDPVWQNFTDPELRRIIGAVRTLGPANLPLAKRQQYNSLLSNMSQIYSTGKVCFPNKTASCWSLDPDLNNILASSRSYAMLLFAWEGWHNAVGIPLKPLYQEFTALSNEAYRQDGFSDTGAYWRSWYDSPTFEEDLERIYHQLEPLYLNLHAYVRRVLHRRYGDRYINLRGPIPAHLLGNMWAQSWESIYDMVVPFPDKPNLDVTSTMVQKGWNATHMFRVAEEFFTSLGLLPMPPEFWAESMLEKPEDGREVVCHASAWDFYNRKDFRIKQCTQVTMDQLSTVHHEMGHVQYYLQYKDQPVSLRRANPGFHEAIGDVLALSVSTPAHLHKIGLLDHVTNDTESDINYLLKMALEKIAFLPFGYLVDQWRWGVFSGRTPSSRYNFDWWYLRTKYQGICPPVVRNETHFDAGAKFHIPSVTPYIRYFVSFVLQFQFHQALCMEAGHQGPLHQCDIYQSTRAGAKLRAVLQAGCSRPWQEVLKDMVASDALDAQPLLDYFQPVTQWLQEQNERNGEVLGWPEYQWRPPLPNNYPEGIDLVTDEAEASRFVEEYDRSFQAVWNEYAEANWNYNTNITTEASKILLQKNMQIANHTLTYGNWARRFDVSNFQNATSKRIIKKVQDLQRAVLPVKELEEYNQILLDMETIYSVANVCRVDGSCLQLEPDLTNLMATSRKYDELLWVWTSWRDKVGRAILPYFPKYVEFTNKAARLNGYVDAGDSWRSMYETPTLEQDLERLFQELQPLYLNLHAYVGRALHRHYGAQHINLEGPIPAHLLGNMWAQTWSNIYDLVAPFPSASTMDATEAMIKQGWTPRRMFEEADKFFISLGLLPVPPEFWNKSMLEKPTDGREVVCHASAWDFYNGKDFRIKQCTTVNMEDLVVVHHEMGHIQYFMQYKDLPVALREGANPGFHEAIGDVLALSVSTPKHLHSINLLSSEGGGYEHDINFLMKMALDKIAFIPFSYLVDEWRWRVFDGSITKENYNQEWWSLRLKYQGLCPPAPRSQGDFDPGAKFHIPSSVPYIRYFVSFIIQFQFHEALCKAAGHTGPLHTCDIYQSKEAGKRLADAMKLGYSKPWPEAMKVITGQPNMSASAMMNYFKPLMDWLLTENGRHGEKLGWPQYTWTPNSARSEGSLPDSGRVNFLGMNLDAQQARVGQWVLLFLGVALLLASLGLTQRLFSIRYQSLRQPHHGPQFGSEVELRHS
# Assay: Spectrophotometric Assay for Angiotensin Converting Enzyme Inhibitors (in vitro inhibition of ACE, benzoyl-glycyl-histidyl-leucine substrate)
# Format: biochemical
# Conditions: crude ACE extract from rabbit lung; 30 minutes at 37° C.; hippuric acid absorbance at 228 nm
# Method: Spectrophotometric Assay for Angiotensin Converting Enzyme Inhibitors
# The in vitro activity for inhibition of the angiotensin converting enzyme (ACE) was measured by the method of Cushman, D. W. and Cheung, H. S., Biochem. Pharmacol., 20, 1637-1648 (1971), using benzoyl-glycyl-histidyl-leucine as the substrate. The reaction mixture consisted of 50 μl. of potassium phosphate (500 mM., […]), 30 μl. of sodium chloride (2500 mM.), 25 μl. of substrate (50 mM.), 30 to 50 μl. of the crude extract of ACE, 10 μl. of test compound (2.5 mM.) or vehicle and a suitable amount of distilled water to give a total volume of 250 μl. This reaction mixture was incubated for 30 minutes at 37° C. and the reaction was then terminated by the addition of 250 μl. of 1 N hydrochloric acid. The hippuric acid was then extracted with 1.5 ml. of ethyl acetate by vortex mixing for 15 seconds. After centrifugation, one ml. of the ethyl acetate layer was pipetted into a new tube and evaporated to dryness. The extracted hippuric acid was then dissolved in one ml. of water and the amount of this acid was then measured by its absorbance at 228 nm. The ACE was extracted from rabbit lung acetane powder (Pel-Freez, Biol. Inc.) by blending 5 g. of the powder in 50 ml. of phosphate buffer (50 mM., pH 8.3) and then centrifuging at 40,000 g for 40 minutes. The supernatant was then kept at 5° C. and used as the enzyme source. The activity of the ACE inhibitor was calculated as the percent inhibition of ACE activity compared to the control value of that particular assay. A full dose-response inhibitory curve is then performed to determine the IC50 value which may be defined as the molar concentration of a compound that will inhibit ACE activity by 50%.
row,IC50 [µM],Compound
1,0.067,"CC(=O)SC(C(=O)c1ccccc1)[C@@H](C)C(=O)N1CSC[C@H]1C(=O)O (stereo partly drawn) [[4R-(4R*,2'S*)]-3-(3-Acetylthio-3-benzoyl-2-methylpropionyl)-4-thiazolidinecarboxylic acid]"
2,8.4,CC(=O)SC(CC(=O)c1ccccc1)C(=O)N1CSC[C@H]1C(=O)O (stereo partly drawn) [[4R]-3-(2-Acetylthio-3-benzoylpropionyl)-4-thiazolidinecarboxylic acid]
3,16.8,"CC(=O)SC(CC(=O)N1CSC[C@H]1C(=O)OCc1c(C)cc(C)cc1C)C(=O)c1ccc(F)cc1 (stereo partly drawn) [[4R]-3-[3-Acetylthio-3-(4-fluorobenzoyl)propionyl]-4-thiazolidinecarboxylicacid, 2,4,6-trimethylbenzyl ester]"
